Test systems include 786-0 renal; ACHN renal; EKVX NSCLC; HT29 colon; LOX IMVI melanoma; OVCAR-5 ovarian; SK-MEL-2 melanoma; UACC-257 melanoma.
Holding throughout (assay): NCI tumour cell line growth inhibition, 48 h

Where “and” joins values, the source holds several entries; their conditions need not be identical. Equal entries are not always repeated.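 Interpolation was linear, between the two tested concentrations surrounding the appropriate level; five concentrations were tested over 48 hours in 96-well plates. At the GI50, growth is halved. TGI is the concentration that stops growth completely.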

As for `O=C1CCCN1c1ccccc1I(=O)=O`, the GI50 with 786-0 renal, in the test with ACHN renal, in the test on EKVX NSCLC, in the test on HT29 colon, in the test with LOX IMVI melanoma and in the test on OVCAR-5 ovarian was more than 100 µM throughout. In addition, the GI50 in the test with SK-MEL-2 melanoma and in the test on UACC-257 melanoma was more than 100 µM in each case. Besides, the TGI in the test with 786-0 renal, in the test on ACHN renal, with EKVX NSCLC, in the test on HT29 colon, in the test with LOX IMVI melanoma and with OVCAR-5 ovarian was more than 100 µM each time. The TGI in the test with SK-MEL-2 melanoma and with UACC-257 melanoma was more than 100 µM throughout.

Take `OC(c1cc(-c2ccc(C(F)(F)F)cc2)nc(C(F)(F)F)c1)C1CCCCN1` (stereo unspecified): the GI50 in the test on 786-0 renal was 1.57 µM; in the test with ACHN renal it was 1.56 µM and 2.37 µM; in the test with EKVX NSCLC it was 1.96 µM and 4.22 µM; in the test on HT29 colon, 1.65 µM; in the test with OVCAR-5 ovarian, 1.53 µM and 2.71 µM. Besides, the TGI was 3.16 µM and 3.48 µM in the test with 786-0 renal; 2.9 µM and 6.39 µM with ACHN renal; 4.3 µM and 11.6 µM with EKVX NSCLC; 3.22 µM and 3.87 µM in the test on HT29 colon; 3.13 µM and 3.07 µM in the test on LOX IMVI melanoma; 2.87 µM and 7.52 µM in the test on OVCAR-5 ovarian. In addition, the TGI in the test with SK-MEL-2 melanoma is 3.42 µM and 3.49 µM; in the test on UACC-257 melanoma it was 3.59 µM and 3.69 µM.

As for `CCC(C)(O)c1cnc(CC(C)C)c(=O)n1O` (stereo unspecified), the TGI in the test with 786-0 renal was more than 100 µM; in the test with ACHN renal it was more than 100 µM; in the test on EKVX NSCLC, more than 100 µM; in the test with HT29 colon it was more than 100 µM; in the test on LOX IMVI melanoma, more than 100 µM; with OVCAR-5 ovarian it was 25.8 µM. For the same compound, the TGI in the test with SK-MEL-2 melanoma and with UACC-257 melanoma was more than 100 µM throughout.

As to `CC(C)CC(C/C=C1/CC(CO)(COC(=O)C(C)(C)C)OC1=O)CC(C)C` (stereo unspecified), the GI50 in the test on 786-0 renal is 1.72 µM and 7.83 µM; in the test with ACHN renal it was 11.4 µM and 5.25 µM; in the test with EKVX NSCLC it was 1.25 µM and 0.247 µM; in the test on HT29 colon, 10.3 µM and 2.55 µM; in the test on LOX IMVI melanoma, 12.3 µM and 1.76 µM. The TGI with 786-0 renal is 17.7 µM and 26.3 µM; in the test on ACHN renal it was 24.1 µM and 21.3 µM; with EKVX NSCLC, 10.7 µM and 7 µM; in the test with HT29 colon it was 23.2 µM and 18.6 µM; in the test with LOX IMVI melanoma, 27.9 µM and 21.9 µM; in the test on OVCAR-5 ovarian, 24.5 µM. Also, the TGI with SK-MEL-2 melanoma is 30.3 µM and 24.3 µM; in the test with UACC-257 melanoma, 31.3 µM and 31 µM.

On to `O=C(Nc1cc(Nc2ncccc2-c2ncnc3nc[nH]c23)ccc1F)c1cc(C(F)(F)F)cc(C(F)(F)F)c1`, for which the GI50 with 786-0 renal was 3.55 µM; in the test with ACHN renal, 1.42 µM; in the test with EKVX NSCLC, 4.1 µM; with HT29 colon it was 0.446 µM; in the test with LOX IMVI melanoma, 0.384 µM; in the test with OVCAR-5 ovarian it was 0.868 µM. In addition, the GI50 with SK-MEL-2 melanoma was 0.355 µM; in the test with UACC-257 melanoma, 0.474 µM. Further, the TGI with 786-0 renal is 9.52 µM; in the test with ACHN renal, 4.27 µM; with EKVX NSCLC, more than 10 µM; in the test with HT29 colon, 4.03 µM; in the test on LOX IMVI melanoma it was 2.02 µM; with OVCAR-5 ovarian, 2.98 µM. For the same compound, the TGI in the test with SK-MEL-2 melanoma is 2.41 µM; in the test on UACC-257 melanoma, more than 10 µM.

Consider `CN(C)CCNCCN`, for which the TGI in the test with 786-0 renal, in the test with ACHN renal, with EKVX NSCLC, in the test with HT29 colon, in the test with LOX IMVI melanoma and with OVCAR-5 ovarian was more than 100 µM each time. The TGI in the test on SK-MEL-2 melanoma and in the test with UACC-257 melanoma was more than 100 µM each time.

For the compound `N[C@H](CCC(=O)N[C@@H](Cc1c[nH]c2ccccc12)C(=O)O)C(=O)O`, the GI50 in the test with 786-0 renal, in the test with ACHN renal, in the test on EKVX NSCLC, in the test with HT29 colon, in the test with LOX IMVI melanoma and in the test with OVCAR-5 ovarian was more than 100 µM in each case. The GI50 in the test on SK-MEL-2 melanoma and in the test with UACC-257 melanoma was more than 100 µM in each case. Also, the TGI with 786-0 renal, in the test with ACHN renal, with EKVX NSCLC, with HT29 colon, in the test with LOX IMVI melanoma and in the test with OVCAR-5 ovarian was more than 100 µM each time. Moreover, the TGI in the test with SK-MEL-2 melanoma and with UACC-257 melanoma was more than 100 µM throughout.

On to `O=C(NCc1ccc(Cn2c(=O)sn(-c3ccccc3)c2=O)cc1)OCc1ccc2cccc(O)c2n1`, for which the GI50 in the test on 786-0 renal was 0.484 µM; in the test on ACHN renal, 0.393 µM; with EKVX NSCLC it was 1.5 µM; in the test on HT29 colon, 0.556 µM; in the test on LOX IMVI melanoma, 0.273 µM; in the test on OVCAR-5 ovarian it was 1.54 µM. In addition, the results for the GI50 in the test on SK-MEL-2 melanoma and in the test with UACC-257 melanoma were 1.46 µM and 1.37 µM, respectively. In addition, the TGI in the test with 786-0 renal was 1.08 µM; in the test on ACHN renal it was 1.47 µM; in the test with EKVX NSCLC, 3.05 µM; in the test with HT29 colon, 2.08 µM; in the test with LOX IMVI melanoma it was 0.955 µM; in the test on OVCAR-5 ovarian, 3.12 µM. Besides, the TGI worked out at 3 µM with SK-MEL-2 melanoma and 3.01 µM in the test with UACC-257 melanoma.

The values above are taken from PubChem BioAssay (NCI).
